Experimental data reported in patent US9695155B2, “Herbicidal substituted pyrimidinyloxy benzene compounds” (E. I. DU PONT DE NEMOURS AND COMPANY, priority 2013, dated 2017).

Assays:
[1] = tested on: surinam grass; test: Test E preemergence; type: in vivo, Brachiaria decumbens; conditions: for Surinam Grass plant response rating: scale 0 to 100 (0 no effect, 100 complete control); for Plant response rating, Surinam Grass: 125 g ai/ha, scale 0 to 100, 0 no effect, 100 complete control
Method in brief: (§1)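 Response was scored visually on a 0-100 scale (100 = complete control) versus controls after 14 to 21 days in the greenhouse. Test chemicals, formulated with surfactant in a non-phytotoxic solvent mixture, had been applied preemergence to seeds in silt loam soil or postemergence to 1- to 4-leaf plants in potting medium.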

[2] = tested on: dayflower; test: Test E preemergence; type: in vivo, Commelina virginica; conditions: for Dayflower, VA plant response rating: scale 0 to 100 (0 no effect, 100 complete control); for Plant response rating, Dayflower, VA: 125 g ai/ha, scale 0 to 100, 0 no effect, 100 complete control
Method in brief: as §1

[3] = tested on: wild poinsettia; test: Test E preemergence; type: in vivo, Euphorbia heterophylla; conditions: for Poinsettia, Wild plant response rating: scale 0 to 100 (0 no effect, 100 complete control); for Plant response rating, Poinsettia, Wild: 125 g ai/ha, scale 0 to 100, 0 no effect, 100 complete control
Method in brief: as §1

[4] = tested on: large (Lg) crabgrass; test: Test E preemergence; type: in vivo, Digitaria sanguinalis; conditions: for Crabgrass, Large plant response rating: scale 0 to 100 (0 no effect, 100 complete control); for Plant response rating, Crabgrass, Large: 125 g ai/ha, scale 0 to 100, 0 no effect, 100 complete control
Method in brief: as §1

[5] = tested on: fall panicum; test: Test E preemergence; type: in vivo, Panicum dichotomiflorum; conditions: for Panicum, Fall plant response rating: scale 0 to 100 (0 no effect, 100 complete control); for Plant response rating, Panicum, Fall: 125 g ai/ha, scale 0 to 100, 0 no effect, 100 complete control
Method in brief: as §1

[6] = tested on: goosegrass; test: Test E preemergence; type: in vivo, Eleusine indica; conditions: for Goosegrass plant response rating: scale 0 to 100 (0 no effect, 100 complete control); for Plant response rating, Goosegrass: 125 g ai/ha, scale 0 to 100, 0 no effect, 100 complete control
Method in brief: as §1

[7] = tested on: barnyardgrass; test: Test E preemergence; type: in vivo, Echinochloa crus-galli; conditions: preemergence; for Barnyardgrass plant response rating: scale 0 to 100 (0 no effect, 100 complete control); for Plant response rating, Barnyardgrass: 125 g ai/ha, scale 0 to 100, 0 no effect, 100 complete control
Method in brief: as §1

[8] = tested on: hairy beggarticks; test: Test E preemergence; type: in vivo, Bidens pilosa; conditions: preemergence; for Beggarticks plant response rating: scale 0 to 100 (0 no effect, 100 complete control); for Plant response rating, Beggarticks: 125 g ai/ha, scale 0 to 100, 0 no effect, 100 complete control
Method in brief: as §1

[9] = tested on: lambsquarters; test: Test E preemergence; type: in vivo, Chenopodium album; conditions: for Lambsquarters plant response rating: scale 0 to 100 (0 no effect, 100 complete control); for Plant response rating, Lambsquarters: 125 g ai/ha, scale 0 to 100, 0 no effect, 100 complete control
Method in brief: as §1

[10] = tested on: johnsongrass; test: Test E preemergence; type: in vivo, Sorghum halepense; conditions: for Johnsongrass plant response rating: scale 0 to 100 (0 no effect, 100 complete control); for Plant response rating, Johnsongrass: 125 g ai/ha, scale 0 to 100, 0 no effect, 100 complete control
Method in brief: as §1

[11] = tested on: kochia; test: Test A preemergence; type: in vivo, Kochia scoparia
Method in brief: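 Scoring: eye-based comparison with untreated controls, 0 for no effect through 100 for complete control, at about day 10. Treatments: directed soil spray preemergence; foliar spray postemergence on 2–10 cm plants at the one- to two-leaf stage. Medium: loam soil with sand.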

[12] = tested on: ragweed; test: Test E preemergence; type: in vivo, Ambrosia elatior; conditions: for Ragweed plant response rating: scale 0 to 100 (0 no effect, 100 complete control); for Plant response rating, Ragweed: 125 g ai/ha, scale 0 to 100, 0 no effect, 100 complete control
Method in brief: as §1

[13] = 125 g ai/ha, 0 to 100 scale where 0 is no effect and 100 is complete control
[14] = 31 g ai/ha, 0 to 100 scale where 0 is no effect and 100 is complete control, visual, approximately 10 days

FC(F)(F)COc1cnn(-c2ccccc2Oc2ncc(Cl)cn2)c1 [Compound 138, 5-chloro-2-[2-[4-(2,2,2-trifluoroethoxy)-1H-pyrazol-1-yl]phenoxy]pyrimidine]
Surinam Grass plant response rating ([1]; 16 g ai/ha): 0
Surinam Grass plant response rating ([1]; 31 g ai/ha): 0
Surinam Grass plant response rating ([1]; 62 g ai/ha): 20
Plant response rating, Surinam Grass [1]: 50
Dayflower, VA plant response rating ([2]; 16 g ai/ha): 0
Dayflower, VA plant response rating ([2]; 31 g ai/ha): 5
Dayflower, VA plant response rating ([2]; 62 g ai/ha): 30
Plant response rating, Dayflower, VA [2]: 40
Poinsettia, Wild plant response rating ([3]; 16 g ai/ha): 0
Poinsettia, Wild plant response rating ([3]; 31 g ai/ha): 25
Poinsettia, Wild plant response rating ([3]; 62 g ai/ha): 35
Plant response rating, Poinsettia, Wild [3]: 25
Crabgrass, Large plant response rating ([4]; 16 g ai/ha): 0
Crabgrass, Large plant response rating ([4]; 31 g ai/ha): 70
Crabgrass, Large plant response rating ([4]; 62 g ai/ha): 98
Plant response rating, Crabgrass, Large [4]: 100
Panicum, Fall plant response rating ([5]; 16 g ai/ha): 0
Panicum, Fall plant response rating ([5]; 31 g ai/ha): 25
Panicum, Fall plant response rating ([5]; 62 g ai/ha): 100
Plant response rating, Panicum, Fall [5]: 100
Goosegrass plant response rating ([6]; 16 g ai/ha): 10
Goosegrass plant response rating ([6]; 31 g ai/ha): 30
Goosegrass plant response rating ([6]; 62 g ai/ha): 50
Plant response rating, Goosegrass [6]: 70
Barnyardgrass plant response rating ([7]; 16 g ai/ha): 0
Barnyardgrass plant response rating ([7]; 31 g ai/ha): 0
Barnyardgrass plant response rating ([7]; 62 g ai/ha): 15
Plant response rating, Barnyardgrass [7]: 60
Beggarticks plant response rating ([8]; 16 g ai/ha): 0
Beggarticks plant response rating ([8]; 31 g ai/ha): 0
Beggarticks plant response rating ([8]; 62 g ai/ha): 0
Plant response rating, Beggarticks [8]: 0
Lambsquarters plant response rating ([9]; 16 g ai/ha): 0
Lambsquarters plant response rating ([9]; 31 g ai/ha): 50
Lambsquarters plant response rating ([9]; 62 g ai/ha): 100
Plant response rating, Lambsquarters [9]: 100
Johnsongrass plant response rating ([10]; 16 g ai/ha): 0
Johnsongrass plant response rating ([10]; 31 g ai/ha): 0
Johnsongrass plant response rating ([10]; 62 g ai/ha): 35
Plant response rating, Johnsongrass [10]: 40
Plant response rating, Kochia [11, 13]: 90
Kochia plant response rating ([11]; 500 g ai/ha, 0 to 100 scale where 0 is no effect and 100 is complete control): 100
Ragweed plant response rating ([12]; 16 g ai/ha): 0
Ragweed plant response rating ([12]; 31 g ai/ha): 0
Ragweed plant response rating ([12]; 62 g ai/ha): 0
Plant response rating, Ragweed [12]: 0

N#Cc1cnn(-c2c(CF)cccc2Oc2ncc(F)cn2)c1 [Compound 151]
Surinam Grass plant response rating ([1]; 31 g ai/ha): 0
Surinam Grass plant response rating ([1]; 62 g ai/ha): 35
Plant response rating, Surinam Grass [1]: 100
Dayflower, VA plant response rating ([2]; 16 g ai/ha): 0
Dayflower, VA plant response rating ([2]; 31 g ai/ha): 10
Dayflower, VA plant response rating ([2]; 62 g ai/ha): 65
Plant response rating, Dayflower, VA [2]: 85
Poinsettia, Wild plant response rating ([3]; 31 g ai/ha): 60
Poinsettia, Wild plant response rating ([3]; 62 g ai/ha): 100
Plant response rating, Poinsettia, Wild [3]: 100
Crabgrass, Large plant response rating ([4]; 16 g ai/ha): 0
Crabgrass, Large plant response rating ([4]; 31 g ai/ha): 5
Crabgrass, Large plant response rating ([4]; 62 g ai/ha): 60
Plant response rating, Crabgrass, Large [4]: 100
Panicum, Fall plant response rating ([5]; 31 g ai/ha): 60
Panicum, Fall plant response rating ([5]; 62 g ai/ha): 100
Plant response rating, Panicum, Fall [5]: 98
Goosegrass plant response rating ([6]; 31 g ai/ha): 0
Goosegrass plant response rating ([6]; 62 g ai/ha): 70
Plant response rating, Goosegrass [6]: 85
Barnyardgrass plant response rating ([7]; 16 g ai/ha): 0
Barnyardgrass plant response rating ([7]; 31 g ai/ha): 20
Barnyardgrass plant response rating ([7]; 62 g ai/ha): 10
Plant response rating, Barnyardgrass [7]: 75
Beggarticks plant response rating ([8]; 16 g ai/ha): 65
Beggarticks plant response rating ([8]; 31 g ai/ha): 65
Beggarticks plant response rating ([8]; 62 g ai/ha): 95
Plant response rating, Beggarticks [8]: 100
Lambsquarters plant response rating ([9]; 31 g ai/ha): 100
Lambsquarters plant response rating ([9]; 62 g ai/ha): 100
Plant response rating, Lambsquarters [9]: 100
Johnsongrass plant response rating ([10]; 31 g ai/ha): 0
Johnsongrass plant response rating ([10]; 62 g ai/ha): 35
Plant response rating, Johnsongrass [10]: 70
Plant response rating, Kochia [11, 14]: 80
Plant response rating, Kochia [11, 13]: 90
Ragweed plant response rating ([12]; 31 g ai/ha): 90
Ragweed plant response rating ([12]; 62 g ai/ha): 95
Plant response rating, Ragweed [12]: 100

FCc1cccc(Oc2ncc(Cl)cn2)c1-n1cc(Cl)cn1 [Compound 250]
Surinam Grass plant response rating ([1]; 31 g ai/ha): 0
Surinam Grass plant response rating ([1]; 62 g ai/ha): 0
Plant response rating, Surinam Grass [1]: 0
Dayflower, VA plant response rating ([2]; 16 g ai/ha): 0
Dayflower, VA plant response rating ([2]; 31 g ai/ha): 0
Dayflower, VA plant response rating ([2]; 62 g ai/ha): 50
Plant response rating, Dayflower, VA [2]: 70
Poinsettia, Wild plant response rating ([3]; 31 g ai/ha): 0
Poinsettia, Wild plant response rating ([3]; 62 g ai/ha): 0
Plant response rating, Poinsettia, Wild [3]: 20
Crabgrass, Large plant response rating ([4]; 16 g ai/ha): 0
Crabgrass, Large plant response rating ([4]; 31 g ai/ha): 0
Crabgrass, Large plant response rating ([4]; 62 g ai/ha): 0
Plant response rating, Crabgrass, Large [4]: 100
Panicum, Fall plant response rating ([5]; 31 g ai/ha): 0
Panicum, Fall plant response rating ([5]; 62 g ai/ha): 0
Plant response rating, Panicum, Fall [5]: 100
Goosegrass plant response rating ([6]; 31 g ai/ha): 0
Goosegrass plant response rating ([6]; 62 g ai/ha): 0
Plant response rating, Goosegrass [6]: 65
Barnyardgrass plant response rating ([7]; 16 g ai/ha): 0
Barnyardgrass plant response rating ([7]; 31 g ai/ha): 0
Barnyardgrass plant response rating ([7]; 62 g ai/ha): 0
Plant response rating, Barnyardgrass [7]: 25
Beggarticks plant response rating ([8]; 16 g ai/ha): 0
Beggarticks plant response rating ([8]; 31 g ai/ha): 0
Beggarticks plant response rating ([8]; 62 g ai/ha): 0
Plant response rating, Beggarticks [8]: 20
Lambsquarters plant response rating ([9]; 31 g ai/ha): 0
Lambsquarters plant response rating ([9]; 62 g ai/ha): 0
Plant response rating, Lambsquarters [9]: 100
Johnsongrass plant response rating ([10]; 31 g ai/ha): 0
Johnsongrass plant response rating ([10]; 62 g ai/ha): 0
Plant response rating, Johnsongrass [10]: 50
Plant response rating, Kochia [11, 14]: 90
Kochia plant response rating (0 to 100 scale) ([11]; 125 g ai/ha): 0
Ragweed plant response rating ([12]; 31 g ai/ha): 0
Ragweed plant response rating ([12]; 62 g ai/ha): 0
Plant response rating, Ragweed [12]: 0
